Test: In-vitro testing of glucose units in a glucose solution before and after mixing with the agent
Assay type: biochemical
Conditions: 10 mls of 10% glucose solution (more than 600 mg/dl before)
Experimental: Our methods were: In-vitro testing to determine glucose units in a glucose solution before and after mixing with Amzylite against other known hypoglaycaemic agents (metformin, sulfonylurea, etc) including insulin. 10 mls of 10% concentrated glucose solution tested for glucose concentration using glucose oxidase and or hexokinase (glucometers can also be used). […] One or two capsule of Amzylite was added to the glucose solution. In-vivo: 141 type I and type II diabetics with diabetes neuropathy, in addition to 9 diabetics with renal incompetency, 15 diabetics with chronic wounds to extremities, 2 diabetics had progressive gas gangrene, all patients had neuropathy with impaired sensations to distal extremities and one none diabetic with renal failure were identified. 31 out of 141 were excluded for incomplete records. 8 self discharged. 128 classified into 4 groups: 33 on insulin therapy; 20 on insulin and oral hypoglycaemic agents, 58 on only oral hypoglycaemic therapy, 16 on diet control only. 9 with high creatinine levels, 15 with chronic wounds, 2 had gas gangrene to distal extremities and one non diabetic had renal incompetency and was on dialysis. Laboratory tests were determined before and after starting Amzylite. No placebo was given.
In-vitro testing to determine glucose units in a glucose solution before and after mixing with Amzylite against other known hypoglaycaemic agents (metformin, sulfonylurea, etc) including insulin. 10 mls of 10% concentrated glucose solution tested for glucose concentration using glucose oxidase and or hexokinase (glucometers can also be used). […] One capsule of Amzylite added to the glucose solution. For In-vivo study to determine the effectiveness of Amzylite as treatment for D.M. 141 patients with type I and type II D.M were treated with Amzylite. 31 patients were excluded for incomplete records. 8 patients' self withdrawn. […] Fasting and 2 hours postprandial blood glucose levels (HbA1c checked in some but not all patients) were determined before starting Amzylite. […] Saliva enzymes function tests were determined for disaccharides and polysaccharides in all patients. […] Improvement in patients' symptoms, daily glucose readings (fasting/2 hour postprandial) and HbA1c were set up as target and evaluation criteria. […] Changes were also determined by […]. 1—Improvement with complete recovery, 2—Significant improvement of symptoms and readings (range 70-170 mg/dl and below 200 mg/dl), 3—Improved symptoms but no change on readings, 4—Improved readings but no improvement on symptoms, 5—No change on symptoms or readings, 6—Higher or lower glucose readings. […]

[1] = one capsule of Amzylite, second study
[2] = one or two capsules of Amzylite, first study

CN(C)C(=N)N=C(N)N [metformin]
In vitro glucose readings after mixing [1]: No changes
In vitro glucose readings after mixing [2]: No changes

insulin
In vitro glucose readings after mixing [1]: No changes
In vitro glucose readings after mixing [2]: No changes
